In patent US4346076A, “Bis-tetrazoylmethyl substituted cephalosporin antibiotics” (Eli Lilly and Company, priority 1980, dated 1982):
Values after ≈ are worked out from the molar mass of the structure shown. Where two headings read alike, the source gives them in different places.

What was measured:
Assay in all cases: in vitro antibacterial activity, agar dilution
Assay type in all cases: cell-based
[1] = tested on: Streptococcus Group D; conditions: read-out: Minimum Inhibitory Concentration
Source text: (§1) The bis-tetrazol-thiomethyl substituted cephalosporins of this invention are broad spectrum antibiotics which inhibit the growth of both gram positive and gram negative microorganisms which are pathogenic to man and animals. […] The following Table 2 lists the minimum inhibitory concentrations of representative compounds of the invention.
(§2) The data in TABLE 2 were obtained in the agar dilution test method using Mueller-Hinton agar containing two percent Supplement C (Difco). Serial two-fold dilutions were run with the highest concentration on test at 128 mcg/ml.

[2] = tested on: Enterobacter aerogenes; conditions: for MIC: Klebsiella aerogenes, read-out: Minimum Inhibitory Concentration
Source text: as §1, §2

[3] = tested on: Streptococcus Group A; conditions: strain C203; read-out: Minimum Inhibitory Concentration
Source text: as §1, §2

[4] = tested on: Proteus morganii; conditions: Morganella morganii, read-out: Minimum Inhibitory Concentration
Source text: as §1, §2

[5] = tested on: Staphylococcus aureus
Source text: as §1, §2

[6] = tested on: Citrobacter freundii; conditions: strain CF17, read-out: Minimum Inhibitory Concentration
Source text: as §1, §2

[7] = tested on: Proteus rettgeri; conditions: Providencia rettgeri, read-out: Minimum Inhibitory Concentration
Source text: as §1, §2

[8] = tested on: Bordetella bronchoseptica; conditions: strain 16, read-out: Minimum Inhibitory Concentration
Source text: as §1, §2

[9] = tested on: Proteus inconstans; conditions: Providencia alcalifaciens; strain PR33; read-out: Minimum Inhibitory Concentration
Source text: as §1, §2

[10] = tested on: Pseudomonas aeruginosa
Source text: as §1, §2

[11] = tested on: Staphylococcus epidermidis
Source text: as §1, §2

[12] = tested on: Haemophilus influenzae; conditions: for MIC: Haemophilus influenzae, read-out: Minimum Inhibitory Concentration
Source text: as §1, §2

[13] = tested on: Shigella sonnei; conditions: strain N9, read-out: Minimum Inhibitory Concentration
Source text: as §1, §2

[14] = tested on: Serratia marcescens
Source text: as §1, §2

[15] = tested on: Salmonella sp.
Source text: as §1, §2

[16] = tested on: Enterobacter cloacae
Source text: as §1, §2

[17] = tested on: Streptococcus pneumoniae; conditions: strain PARK, read-out: Minimum Inhibitory Concentration
Source text: as §1, §2

[18] = tested on: Klebsiella sp.
Source text: as §1, §2

[19] = tested on: Escherichia coli
Source text: as §1, §2

[20] = read-out: Minimum Inhibitory Concentration
[21] = strain V41, read-out: Minimum Inhibitory Concentration
[22] = strain X1.1, read-out: Minimum Inhibitory Concentration
[23] = strain X400, read-out: Minimum Inhibitory Concentration
[24] = strain Ps18, read-out: Minimum Inhibitory Concentration
[25] = strain X239, read-out: Minimum Inhibitory Concentration
[26] = strain X528, read-out: Minimum Inhibitory Concentration
[27] = strain EPI1, read-out: Minimum Inhibitory Concentration
[28] = strain EPI2, read-out: Minimum Inhibitory Concentration
[29] = strain SE3, read-out: Minimum Inhibitory Concentration
[30] = strain 1335, read-out: Minimum Inhibitory Concentration
[31] = strain X514, read-out: Minimum Inhibitory Concentration
[32] = strain 265A, read-out: Minimum Inhibitory Concentration
[33] = strain EB5, read-out: Minimum Inhibitory Concentration
[34] = strain KAE, read-out: Minimum Inhibitory Concentration
[35] = strain X26, read-out: Minimum Inhibitory Concentration
[36] = strain EC14, read-out: Minimum Inhibitory Concentration
[37] = strain N10, read-out: Minimum Inhibitory Concentration
[38] = strain X93, read-out: Minimum Inhibitory Concentration
[39] = strain TEM, read-out: Minimum Inhibitory Concentration

`CO/N=C(\C(=O)N[C@@H]1C(=O)N2C(C(=O)O)=C(CSc3nnnn3Cc3nnnn3C)CS[C@H]12)c1csc(N)n1` [F] was tested, and the MIC ([1]; strain 9960) was 16 µg/mL (≈ 27 µM), the MIC ([1]; strain X66) was greater than 128 µg/mL and the MIC [2] was 0.125 µg/mL (≈ 0.211 µM). The MIC ([2]; strain EB17) was 0.25 µg/mL (≈ 0.421 µM), the “Minimum Inhibitory Concentration” value ([2]; strain C32) was “.125 µg/mL” and the MIC [3] was 0.03 µg/mL (≈ 0.0505 µM). For the same compound, the MIC [4] was 0.125 µg/mL (≈ 0.211 µM), the MIC [5, 20] was 8 µg/mL (≈ 13.5 µM) and the MIC [5, 21] was 4 µg/mL (≈ 6.74 µM). It also gave an MIC [5, 22] of 2 µg/mL (≈ 3.37 µM), an MIC [5, 23] greater than 128 µg/mL and an MIC [6] of 16 µg/mL (≈ 27 µM). It also gave an MIC ([7]; strain C24) of 0.25 µg/mL (≈ 0.421 µM), an MIC ([7]; strain PR7) of 0.03 µg/mL (≈ 0.0505 µM) and an MIC [8] of 128 µg/mL (≈ 216 µM). For the same compound, the MIC [9] was 0.5 µg/mL (≈ 0.842 µM), the MIC [10, 24] was 32 µg/mL (≈ 53.9 µM) and the MIC [10, 25] was 32 µg/mL (≈ 53.9 µM). The MIC [10, 26] was 32 µg/mL (≈ 53.9 µM), the MIC [11, 27] was 8 µg/mL (≈ 13.5 µM) and the MIC [11, 28] was 32 µg/mL (≈ 53.9 µM). The MIC [12] was 0.125 µg/mL (≈ 0.211 µM), the “Minimum Inhibitory Concentration” value ([12]; strain 251, resistant strain) was “.125 µg/mL” and the MIC [13] was 0.125 µg/mL (≈ 0.211 µM). The MIC [14, 20] was 0.125 µg/mL (≈ 0.211 µM), the MIC [14, 29] was 0.5 µg/mL (≈ 0.842 µM) and the MIC [15, 30] was 0.5 µg/mL (≈ 0.842 µM). For the same compound, the MIC [15, 31] was 0.25 µg/mL (≈ 0.421 µM), the MIC [16, 32] was 32 µg/mL (≈ 53.9 µM) and the MIC [16, 33] was 1 µg/mL (≈ 1.68 µM). The MIC [17] was 0.015 µg/mL (≈ 0.0253 µM), the MIC [18, 34] was 4 µg/mL (≈ 6.74 µM) and the MIC [18, 35] was 0.06 µg/mL (≈ 0.101 µM). For the same compound, the MIC [19, 20] was 0.125 µg/mL (≈ 0.211 µM), the MIC [19, 36] was 0.06 µg/mL (≈ 0.101 µM) and the MIC [19, 37] was 0.25 µg/mL (≈ 0.421 µM).

Work on `O=CO[C@@H](C(=O)N[C@@H]1C(=O)N2C(C(=O)O)=C(CSc3nnnn3Cc3nnn[nH]3)CS[C@H]12)c1ccccc1` [C] yielded an MIC ([1]; strain 9960) of 128 µg/mL (≈ 229 µM), an MIC ([1]; strain X66) greater than 128 µg/mL and an MIC ([2]; strain C32) of 4 µg/mL (≈ 7.16 µM). It also gave an MIC ([2]; strain EB17) of 2 µg/mL (≈ 3.58 µM), an MIC ([2]; strain X68) of 0.25 µg/mL (≈ 0.448 µM) and an MIC [3] of 0.5 µg/mL (≈ 0.895 µM). For the same compound, the MIC ([4]; strain PR15) was 2 µg/mL (≈ 3.58 µM), the MIC [5, 20] was 16 µg/mL (≈ 28.6 µM) and the MIC [5, 21] was 8 µg/mL (≈ 14.3 µM). It also gave an MIC [5, 22] of 1 µg/mL (≈ 1.79 µM), an MIC [5, 23] of 128 µg/mL (≈ 229 µM) and an MIC [6] greater than 128 µg/mL. It also gave an MIC ([7]; strain C24) of 0.5 µg/mL (≈ 0.895 µM), an MIC ([7]; strain PR7) of 4 µg/mL (≈ 7.16 µM) and an MIC [8] of 16 µg/mL (≈ 28.6 µM). For the same compound, the MIC [9] was 2 µg/mL (≈ 3.58 µM), the MIC [10, 24] was greater than 128 µg/mL and the MIC [10, 25] was greater than 128 µg/mL. For the same compound, the MIC [10, 26] was greater than 128 µg/mL, the MIC [11, 27] was 8 µg/mL (≈ 14.3 µM) and the MIC [11, 28] was 32 µg/mL (≈ 57.3 µM). It also gave an MIC ([12]; strain 251, resistant strain) of 4 µg/mL (≈ 7.16 µM), an MIC ([12]; strain Brun, sensitive strain) of 4 µg/mL (≈ 7.16 µM) and an MIC [13] of 1 µg/mL (≈ 1.79 µM). The MIC [14, 29] was greater than 128 µg/mL, the MIC [14, 38] was 32 µg/mL (≈ 57.3 µM) and the MIC [15, 30] was 2 µg/mL (≈ 3.58 µM). For the same compound, the MIC [15, 31] was 1 µg/mL (≈ 1.79 µM), the MIC [16, 32] was greater than 128 µg/mL and the MIC [16, 33] was 128 µg/mL (≈ 229 µM). It also gave an MIC [17] of 0.25 µg/mL (≈ 0.448 µM), an MIC [18, 34] greater than 128 µg/mL and an MIC [18, 35] of 2 µg/mL (≈ 3.58 µM). It also gave an MIC [19, 36] of 0.25 µg/mL (≈ 0.448 µM), an MIC [19, 37] of 2 µg/mL (≈ 3.58 µM) and an MIC [19, 39] of 8 µg/mL (≈ 14.3 µM).

Compound `CO[C@@]1(NC(=O)Cc2cccs2)C(=O)N2C(C(=O)O)=C(CSc3nnnn3Cc3nnn[nH]3)CS[C@@H]21` [A, 7-(2-thienylacetamido)-7-methoxy-3-[1-(1H-tetrazole-5-ylmethyl)-1H-tetrazole-5-ylthiomethyl]-3-cephem-4-carboxylic acid] has an MIC ([1]; strain 9960) greater than 128 µg/mL, an MIC ([1]; strain X66) of 64 µg/mL (≈ 116 µM) and an MIC ([2]; strain C32) greater than 128 µg/mL. The MIC ([2]; strain EB17) was greater than 128 µg/mL, the MIC ([2]; strain X68) was 4 µg/mL (≈ 7.26 µM) and the MIC [3] was 0.5 µg/mL (≈ 0.908 µM). For the same compound, the MIC ([4]; strain PR15) was 64 µg/mL (≈ 116 µM), the MIC [5, 20] was 8 µg/mL (≈ 14.5 µM) and the MIC [5, 21] was 2 µg/mL (≈ 3.63 µM). It also gave an MIC [5, 22] of 2 µg/mL (≈ 3.63 µM), an MIC [5, 23] of 16 µg/mL (≈ 29.1 µM) and an MIC [6] greater than 128 µg/mL. For the same compound, the MIC ([7]; strain C24) was 1 µg/mL (≈ 1.82 µM), the MIC ([7]; strain PR7) was 4 µg/mL (≈ 7.26 µM) and the MIC [8] was greater than 128 µg/mL. The MIC [9] was 4 µg/mL (≈ 7.26 µM), the MIC [10, 24] was greater than 128 µg/mL and the MIC [10, 25] was greater than 128 µg/mL. For the same compound, the MIC [10, 26] was greater than 128 µg/mL, the MIC [11, 27] was 16 µg/mL (≈ 29.1 µM) and the MIC [11, 28] was 8 µg/mL (≈ 14.5 µM). The MIC ([12]; strain 76, resistant strain) was 0.25 µg/mL (≈ 0.454 µM), the MIC ([12]; strain C.L., sensitive strain) was 0.25 µg/mL (≈ 0.454 µM) and the MIC [13] was 8 µg/mL (≈ 14.5 µM). It also gave an MIC [14, 29] of 64 µg/mL (≈ 116 µM), an MIC [14, 38] of 16 µg/mL (≈ 29.1 µM) and an MIC [15, 30] of 2 µg/mL (≈ 3.63 µM). It also gave an MIC [15, 31] of 1 µg/mL (≈ 1.82 µM), an MIC [16, 32] greater than 128 µg/mL and an MIC [16, 33] greater than 128 µg/mL. The MIC [17] was 4 µg/mL (≈ 7.26 µM), the MIC [18, 34] was 4 µg/mL (≈ 7.26 µM) and the MIC [18, 35] was 1 µg/mL (≈ 1.82 µM). For the same compound, the MIC [19, 36] was 4 µg/mL (≈ 7.26 µM), the MIC [19, 37] was 8 µg/mL (≈ 14.5 µM) and the MIC [19, 39] was 4 µg/mL (≈ 7.26 µM).
